Results published in publication PMC10999543, “Identification of kinase modulators as host-directed therapeutics against intracellular methicillin-resistant Staphylococcus aureus” (Frontiers in Cellular and Infection Microbiology, 2024).
Like-named read-outs stand apart in the source and are kept apart here.

How the values were obtained:
intracellular MRSA = assay type: cell-based, Staphylococcus aureus; details: for %GFP+ rep 1 / z-scoreMRSA+ rep 1: replicate 1; for %GFP+ rep 2 / z-scoreMRSA+ rep 2: replicate 2; for %GFP+ rep 3 / z-scoreMRSA+ rep 3: replicate 3; for z-scoreMRSA+ mean: mean of 3 replicates
In short: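 HeLa, MRSA-GFP at MOI ~6.8, 1 h infection; gentamicin 30 µg/ml for 15 min; inhibitor plus gentamicin 5 µg/ml overnight, 37°C/5% CO2; triplicate plates; FACS %GFP+ and cell count; hit = z ≤ -2 MRSA+, z ≥ -3 count.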

HeLa cells = experiment: Compound screen by flow cytometry: HeLa cell count as surrogate readout of cell viability (z-scoreHeLa); assay type: cell-based, human; details: for cell count rep 1 / z-scoreHeLa rep 1: replicate 1; for cell count rep 2 / z-scoreHeLa rep 2: replicate 2; for cell count rep 3 / z-scoreHeLa rep 3: replicate 3; for z-scoreHeLa mean: mean of 3 replicates
In short: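 HeLa cells were infected with GFP-MRSA (mean MOI 6.8 ± 4.6) for 1 h, and extracellular bacteria were killed with 30 µg/ml gentamicin. Cells were then incubated overnight with kinase inhibitors in 5 µg/ml gentamicin, in triplicate against DMSO controls. Flow-cytometric cell count served as a viability surrogate, expressed as a plate z-score.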

[1] = PKIS compound screen raw data, MRSA-infected HeLa cells
[2] = PKIS compound screen, MRSA-infected HeLa cells
[3] = PKIS compound screen, Yes/No call (effect without cell death)
[4] = PKIS compound screen, Yes/No call on z-scoreMRSA+
[5] = PKIS compound screen raw data, HeLa cell count
[6] = PKIS compound screen, HeLa cell count
[7] = PKIS compound screen, Yes/No call on z-scoreHeLa
[8] = Yes/No: effect without cell death
[9] = compound screen, MRSA-infected HeLa cells
[10] = compound screen, HeLa cell count
[11] = PKIS compound screen, Yes/No call
[12] = PKIS compounds raw data, MRSA-infected HeLa cells
[13] = PKIS compounds raw data, HeLa cell count

| Compound | %GFP+ rep 1 (intracellular MRSA; [1]) [%] | %GFP+ rep 2 (intracellular MRSA; [1]) [%] | %GFP+ rep 3 (intracellular MRSA; [1]) [%] | z-scoreMRSA+ mean (intracellular MRSA; [2]) | z-scoreMRSA+ rep 1 (intracellular MRSA; [2]) | z-scoreMRSA+ rep 2 (intracellular MRSA; [2]) | z-scoreMRSA+ rep 3 (intracellular MRSA; [2]) | hit (intracellular MRSA; [3]) | effect (intracellular MRSA; [4]) | cell count rep 1 (HeLa cells; [5]) | cell count rep 2 (HeLa cells; [5]) | cell count rep 3 (HeLa cells; [5]) | z-scoreHeLa mean (HeLa cells; [6]) | z-scoreHeLa rep 1 (HeLa cells; [6]) | z-scoreHeLa rep 2 (HeLa cells; [6]) | z-scoreHeLa rep 3 (HeLa cells; [6]) | cell death (HeLa cells; [7]) | effect (intracellular MRSA; Yes/No call from z-scoreMRSA+) | hit (intracellular MRSA; [8]) | z-scoreMRSA+ mean (intracellular MRSA; [9]) | other results |
| --- | --- | --- | --- | --- | --- | --- | --- | --- | --- | --- | --- | --- | --- | --- | --- | --- | --- | --- | --- | --- | --- |
| COc1cc(C)c(N(C)C(=O)CN(C)C)cc1Nc1nc(Nc2cccc(F)c2C(N)=O)c2cc[nH]c2n1 [GSK2219385A] | 15.2 | 16.3 | 17.5 | -0.74 | -0.84 | -0.67 | -0.70 | No | No | 14421 | 25742 | 38560 | -0.95 | -0.86 | -1.69 | -0.31 | No | – | – | – | – |
| Cc1c(Cn2ccn3c(=O)cc(N4CCOCC4)nc23)cccc1C(F)(F)F [GSK2289044B] | 13.5 | 15.4 | 14.7 | -1.29 | -1.38 | -0.94 | -1.55 | No | No | 23358 | 26653 | 34666 | -0.65 | 0.49 | -1.52 | -0.93 | No | – | – | – | – |
| O=c1cc(N2CCOCC2)nc2n(Cc3cccc(Cl)c3)ccn12 [GSK2296823A] | 13.9 | 14.9 | 15.7 | – | – | – | – | – | – | 36512 | 34515 | 25382 | – | – | – | – | – | No | No | -1.35 | z-scoreMRSA+ rep 1 (intracellular MRSA; [9]): -1.30; z-scoreMRSA+ rep 2 (intracellular MRSA; [9]): -1.23; z-scoreMRSA+ rep 3 (intracellular MRSA; [9]): -1.51; cell death (HeLa cells; Yes/No call from z-scoreHeLa): No; z-scoreHeLa mean (HeLa cells; [10]): 1.30; z-scoreHeLa rep 1 (HeLa cells; [10]): 1.07; z-scoreHeLa rep 2 (HeLa cells; [10]): 1.58; z-scoreHeLa rep 3 (HeLa cells; [10]): 1.26 |
| Cc1cccc(Cn2ccn3c(=O)cc(N4CCOCC4)nc23)c1 [GSK2297542A] | 14.5 | 15.7 | 16.8 | -1.12 | -1.14 | -1.01 | -1.21 | No | No | 36714 | 30989 | 25952 | 1.15 | 1.10 | 0.98 | 1.37 | No | – | – | – | effect (intracellular MRSA; [11]): No; z-scoreMRSA+ mean (intracellular MRSA; PKIS compound screen): -0.44; z-scoreMRSA+ rep 1 (intracellular MRSA; PKIS compound screen): -0.63; z-scoreMRSA+ rep 2 (intracellular MRSA; PKIS compound screen): -0.16; z-scoreMRSA+ rep 3 (intracellular MRSA; PKIS compound screen): -0.51; %GFP+ rep 1 (intracellular MRSA; [12]): 23.8%; %GFP+ rep 2 (intracellular MRSA; [12]): 25.2%; %GFP+ rep 3 (intracellular MRSA; [12]): 24.5%; cell death (HeLa cells; [11]): No; z-scoreHeLa mean (HeLa cells; PKIS compound screen): 0.56; z-scoreHeLa rep 1 (HeLa cells; PKIS compound screen): 0.45; z-scoreHeLa rep 2 (HeLa cells; PKIS compound screen): 0.33; z-scoreHeLa rep 3 (HeLa cells; PKIS compound screen): 0.91; cell count rep 1 (HeLa cells; [13]): 6792; cell count rep 2 (HeLa cells; [13]): 6500; cell count rep 3 (HeLa cells; [13]): 7025 |
| O=c1cc(N2CCOCC2)nc2n(Cc3cccc4ccccc34)ccn12 [GSK2333389A] | 11.3 | 12.1 | 12.6 | -2.07 | -2.08 | -1.93 | -2.19 | Yes | Yes | 20901 | 33281 | 38349 | -0.17 | 0.12 | -0.28 | -0.35 | No | – | – | – | – |
| Cc1cn2c(=O)cc(N3CCOCC3)nc2n1Cc1cccc(Cl)c1Cl [GSK2334006A] | 10.9 | 13.1 | 15.5 | -1.80 | -2.11 | -1.72 | -1.57 | No | No | 38408 | 33023 | 28416 | 1.52 | 1.39 | 1.33 | 1.85 | No | – | – | – | effect (intracellular MRSA; [11]): No; z-scoreMRSA+ mean (intracellular MRSA; PKIS compound screen): -0.59; z-scoreMRSA+ rep 1 (intracellular MRSA; PKIS compound screen): -0.75; z-scoreMRSA+ rep 2 (intracellular MRSA; PKIS compound screen): -1.01; z-scoreMRSA+ rep 3 (intracellular MRSA; PKIS compound screen): -0.0127; %GFP+ rep 1 (intracellular MRSA; [12]): 23.2%; %GFP+ rep 2 (intracellular MRSA; [12]): 20.8%; %GFP+ rep 3 (intracellular MRSA; [12]): 27.2%; cell death (HeLa cells; [11]): No; z-scoreHeLa mean (HeLa cells; PKIS compound screen): -0.32; z-scoreHeLa rep 1 (HeLa cells; PKIS compound screen): -0.18; z-scoreHeLa rep 2 (HeLa cells; PKIS compound screen): -0.55; z-scoreHeLa rep 3 (HeLa cells; PKIS compound screen): -0.25; cell count rep 1 (HeLa cells; [13]): 5750; cell count rep 2 (HeLa cells; [13]): 5179; cell count rep 3 (HeLa cells; [13]): 5208 |
| Cc1nn2c(=O)cc(N3CCOCC3)nc2n1Cc1cccc(Cl)c1Cl [GSK2342769A] | 10.7 | 10.7 | 15.0 | -2.08 | -2.16 | -2.38 | -1.70 | No and Yes | Yes | 31673 | 24146 | 21902 | 0.21 | 0.25 | -0.19 | 0.58 | No | – | – | – | effect (intracellular MRSA; [11]): No; z-scoreMRSA+ mean (intracellular MRSA; PKIS compound screen): -0.59; z-scoreMRSA+ rep 1 (intracellular MRSA; PKIS compound screen): -0.67; z-scoreMRSA+ rep 2 (intracellular MRSA; PKIS compound screen): -0.54; z-scoreMRSA+ rep 3 (intracellular MRSA; PKIS compound screen): -0.55; %GFP+ rep 1 (intracellular MRSA; [12]): 23.6%; %GFP+ rep 2 (intracellular MRSA; [12]): 23.2%; %GFP+ rep 3 (intracellular MRSA; [12]): 24.3%; cell death (HeLa cells; [11]): No; z-scoreHeLa mean (HeLa cells; PKIS compound screen): -1.49; z-scoreHeLa rep 1 (HeLa cells; PKIS compound screen): -1.68; z-scoreHeLa rep 2 (HeLa cells; PKIS compound screen): -1.59; z-scoreHeLa rep 3 (HeLa cells; PKIS compound screen): -1.19; cell count rep 1 (HeLa cells; [13]): 3246; cell count rep 2 (HeLa cells; [13]): 3614; cell count rep 3 (HeLa cells; [13]): 3721 |
| O=c1cc(N2CCOCC2)nc2n(Cc3cccc(Cl)c3Cl)c(C3CC3)nn12 [GSK2358994A] | 12.1 | 13.2 | 14.9 | -1.74 | -1.78 | -1.70 | -1.73 | No | No | 42747 | 35107 | 37884 | 2.50 | 2.13 | 1.69 | 3.69 | No | – | – | – | – |
| CNc1nc(-c2ccc3c(N)n[nH]c3c2)cc(N2C[C@@H](C(=O)NC3CCCCC3)OC[C@H]2C)n1 [GSK2375584A] | 21.4 | 23.1 | 26.2 | – | – | – | – | – | – | 30717 | 29074 | 21029 | – | – | – | – | – | No | No | 1.02 | z-scoreMRSA+ rep 1 (intracellular MRSA; [9]): 0.70; z-scoreMRSA+ rep 2 (intracellular MRSA; [9]): 1.01; z-scoreMRSA+ rep 3 (intracellular MRSA; [9]): 1.36; cell death (HeLa cells; Yes/No call from z-scoreHeLa): No; z-scoreHeLa mean (HeLa cells; [10]): 0.38; z-scoreHeLa rep 1 (HeLa cells; [10]): 0.09; z-scoreHeLa rep 2 (HeLa cells; [10]): 0.65; z-scoreHeLa rep 3 (HeLa cells; [10]): 0.41 |
| Nc1nccc2scc(-c3ccc4c(c3)CCN4C(=O)Cc3ccccc3)c12 [GSK2576924A] | 25.5 | 24.3 | 22.9 | – | – | – | – | – | – | 3006 | 3066 | 3447 | – | – | – | – | – | No | No | 0.22 | z-scoreMRSA+ rep 1 (intracellular MRSA; [9]): 0.05; z-scoreMRSA+ rep 2 (intracellular MRSA; [9]): 0.41; z-scoreMRSA+ rep 3 (intracellular MRSA; [9]): 0.21; cell death (HeLa cells; Yes/No call from z-scoreHeLa): No; z-scoreHeLa mean (HeLa cells; [10]): -1.02; z-scoreHeLa rep 1 (HeLa cells; [10]): -0.97; z-scoreHeLa rep 2 (HeLa cells; [10]): -0.95; z-scoreHeLa rep 3 (HeLa cells; [10]): -1.13 |
